# Values of other authors, collected in US10881700B1, “Compositions including extracts of gray mangrove leaves and methods of treatment using such compositions in treatment of viral infections” (KING ABDULLAH UNIVERSITY OF SCIENCE AND TECHNOLOGY, priority 2016, dated 2021).
# Key:
# HIV-1 integrase = HIV-1 integrase (Human immunodeficiency virus type 1 group M subtype B, UniProt P04585); settings: reference [24]
# HIV-1 reactivation = settings: reference [26]
SMILES,activity against HIV-1 integrase (HIV-1 integrase),blocking HIV-1 reactivation in cases of virus latency (HIV-1 reactivation)
COC(=O)C=Cc1ccccc1 [Methyl cinnamate],not demonstrated activity,–
"COc1ccccc1O [gluaiacol, 2-Methoxy phenol]",–,efficient in blocking HIV-1 reactivation
